From patent US9005575B2, “Arg-Gly-Asp-conjugated alpha-melanocyte stimulating hormone hybrid peptide for use in diagnosing and treating melanoma, including metastatic melanoma and methods related to same” (STC.UNM, priority 2009, dated 2015)
Positions of bridges follow the written chain, without caps; N, C: chain ends. Non-standard residues stand in square brackets, D forms with d. Residues, ends and D or L forms follow the SMILES beside them.

Experiments:
[1] = test system: B16/F1 melanoma; assay: SPECT/CT imaging of melanoma; format: in vivo, C57 mouse; details: 2 h post-injection
Procedure: (§1) A B16/F1 melanoma-bearing C57 mouse was injected with 10.4 MBq of ^99mTc-RGD-Lys-(Arg^11)CCMSH via the tail vein. The mouse was anesthetized with 1.5% isoflurane for small animal SPECT/CT (Nano-SPECT/CT®, Bioscan) imaging 2 h post-injection. The 9-min CT imaging was immediately followed by the SPECT imaging of whole-body. The SPECT scans of 24 projections were acquired and total acquisition time was approximately 45 min. After the SPECT imaging, the mouse was euthanized with CO2 inhalation. Reconstructed data from SPECT and CT were visualized and co-registered using InVivoScope (Bioscan, Washington D.C.).
as §1, with “6.1” for “10.4”, “^99mTc-RGD-Arg-(Arg^11)CCMSH” for “^99mTc-RGD-Lys-(Arg^11)CCMSH”, “9-min.” for “9-min”

[2] = Urinary metabolites by HPLC; format: in vivo, C57 mouse; details: urine, 2 h post-injection, RP-HPLC
Procedure: (§2) Urinary metabolites of ^99mTc-RGD-Lys-(Arg^11)CCMSH were determined by injecting 3.7 MBq of ^9″Tc-RGD-Lys-(Arg^11)CCMSH into a B16/F1 melanoma-bearing C57 mouse through the tail vein. At 2 h after dose administration, the mouse was euthanized and the urine was collected. The radioactive metabolites in the urine were analyzed by injecting aliquots of urine into HPLC. A 20-minute gradient of 16-26% acetonitrile/20 mM HCl was used for the urine analysis.
as §2, with “^99mTc-RGD-Arg-(Arg^11)CCMSH” for “^99mTc-RGD-Lys-(Arg^11)CCMSH”, “^99mTc-RGD-Arg-(Arg^11)CCMSH” for “^9″Tc-RGD-Lys-(Arg^11)CCMSH”

[3] = Effect of L-lysine co-injection on renal and tumor uptakes; format: in vivo, C57 mice; details: 15 mg of L-lysine, 2 h post-injection; for tissue uptake at 2 h: C57, mouse, kidneys, with L-lysine, 15 mg co-injected, total radioactivity
Procedure: The effects of L-lysine co-injection on the renal uptakes of ^99mTc-RGD-Arg-(Arg^11)CCMSH and ^99mTc-RGD-Lys-(Arg^11)CCMSH was examined in B16/F1 melanoma-bearing C57 as well. Two groups of 5 mice were injected with an aqueous mixture of 0.037 MBq of ^99mTc-RGD-Arg-(Arg^11)CCMSH and 15 mg of L-lysine or an aqueous mixture of 0.037 MBq of ^99mTc-RGD-Lys-(Arg^11)CCMSH and 15 mg of L-lysine, respectively. The mice were sacrificed at 2 h post-injection, and tumors and kidneys were harvested, weighed and counted.

[4] = Stability in mouse serum monitored by RP-HPLC; format: in vitro ADME; details: 37° C., 24 h
Procedure: RGD-Lys-(Arg^11)CCMSH was radiolabeled with ^99mTc via a glucoheptonate transchelation reaction using methods described previously (7). Briefly, 100 μl of 2 mg/ml SnCl2 in 0.2 M glucoheptonate aqueous solution and 200 μl of fresh ^99mTcO4^− solution (1-4 mCi) were added into a reaction vial and incubated at room temperature (25° C.) for […] to form ^99mTc-glucoheptonate. Then, 10 μl of 1 mg/ml RGD-Lys-(Arg^11)CCMSH aqueous solution was added into the reaction vial and the pH of the reaction mixture was adjusted to 8.5 with 0.1 M NaOH. The reaction mixture was incubated at 75° C. for 40 min. […] The stability of ^99mTc-RGD-Lys-(Arg^11)CCMSH was determined by incubation in mouse serum at 37° C. according to the published procedure (27) for various time periods, and monitored for degradation by RP-HPLC.
RGD-Arg-(Arg^11)CCMSH was radiolabeled with ^99mTc via a glucoheptonate transchelation reaction using methods described previously (17). […] The stability of ^99m Tc-RGD-Arg-(Arg^11)CCMSH was determined by incubation in mouse serum at 37° C. according to the published procedure (17) for various time periods, and monitored for degradation by RP-HPLC.

| SMILES | Visualization of flank melanoma tumors by SPECT/CT [1] | Urinary radioactivity: remained intact [2] | Urinary radioactivity: transformed to more lipophilic metabolite(s) [2] | Effect of L-lysine co-injection on the tumor uptake [3] | Reduction of renal uptake by L-lysine co-injection [3] | tissue uptake at 2 h [3] | Stability in mouse serum [4] |
| --- | --- | --- | --- | --- | --- | --- | --- |
| CC(C)[C@H](NC(=O)[C@@H]1CCCN1C(=O)[C@H](CCCNC(=N)N)NC(=O)[C@H](CS)NC(=O)[C@H](Cc1c[nH]c2ccccc12)NC(=O)[C@H](CCCNC(=N)N)NC(=O)[C@@H](Cc1ccccc1)NC(=O)[C@H](Cc1c[nH]cn1)NC(=O)[C@H](CCC(=O)O)NC(=O)[C@H](CS)NC(=O)[C@H](CS)NC(=O)[C@H](CCCCN)NC(=O)[C@@H]1CC(=O)N[C@@H](CCCNC(=N)N)C(=O)NCC(=O)N[C@@H](CC(=O)O)C(=O)N[C@H](Cc2ccc(O)cc2)C(=O)N1)C(N)=O [^99mTc-RGD-Lys-(Arg^11)CCMSH, metal not drawn] (RGD[dY]DKCCEH[dF]RWCRPV-NH2; lactam N-5) | visualized clearly | Approximately 68% | 32% | without affecting | 52.1% | 32.2 ± 5.98 %ID/g | stable |
| CC(C)[C@H](NC(=O)[C@@H]1CCCN1C(=O)[C@H](CCCNC(=N)N)NC(=O)[C@H](CS)NC(=O)[C@H](Cc1c[nH]c2ccccc12)NC(=O)[C@H](CCCNC(=N)N)NC(=O)[C@@H](Cc1ccccc1)NC(=O)[C@H](Cc1c[nH]cn1)NC(=O)[C@H](CCC(=O)O)NC(=O)[C@H](CS)NC(=O)[C@H](CS)NC(=O)[C@H](CCCNC(=N)N)NC(=O)[C@@H]1CC(=O)N[C@@H](CCCNC(=N)N)C(=O)NCC(=O)N[C@@H](CC(=O)O)C(=O)N[C@H](Cc2ccc(O)cc2)C(=O)N1)C(N)=O [^99mTc-RGD-Arg-(Arg^11)CCMSH, metal not drawn] (RGD[dY]DRCCEH[dF]RWCRPV-NH2; lactam N-5) | visualized clearly | Approximately 73% | 27% | without affecting | 27.7% | 31.1 ± 6.42 %ID/g | stable |
